The record followed here is BindingDB's records for doi:10.1021/bi200855m (Whitman College, 2011).

The test deals with T1, 2,6-dichloro-p-hydroquinone 1,2-dioxygenase (Sphingobium chlorophenolicum, UniProt Q9ZBB0).
T1 sequence (Q9ZBB0 whole entry): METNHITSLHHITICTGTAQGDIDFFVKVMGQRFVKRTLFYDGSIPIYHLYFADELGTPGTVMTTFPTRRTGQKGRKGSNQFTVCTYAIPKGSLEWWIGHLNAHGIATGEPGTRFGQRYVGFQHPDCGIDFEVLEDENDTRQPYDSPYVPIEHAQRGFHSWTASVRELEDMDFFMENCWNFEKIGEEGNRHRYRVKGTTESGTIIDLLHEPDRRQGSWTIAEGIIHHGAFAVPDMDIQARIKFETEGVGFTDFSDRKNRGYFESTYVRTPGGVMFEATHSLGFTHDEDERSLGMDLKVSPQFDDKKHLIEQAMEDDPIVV
Description: Inhibition Assay. The protocol: The rate of the enzymatic reaction was determined by measuring product formation by a spectrophotometric assay developed by Xun and co-worker with modification. The assay was performed on a Cary 50 Bio or Cary 5000 UV-visible spectrophotometer (Varian).

What is called Ki is the dissociation constant of the complex between target and ligand, obtained from inhibition or displacement. Regarding `Oc1c(Cl)cccc1Cl` [2,6-Dichlorophenol], the Ki turned out to be 48 µM.
To `Oc1c(Br)cccc1Br` belongs 13 µM.
